Source: article PMC9623087, “Bioaffinity ultrafiltration coupled with HPLC-ESI-MS/MS for screening potential α-glucosidase inhibitors from pomegranate peel” (Frontiers in Nutrition, 2022)
One block for each molecule: values may come before it.

Tests used:
α-glucosidase [1] = target: T1, α-glucosidase (Saccharomyces cerevisiae, UniProt P53341); assay: α-glucosidase inhibition assay (pNPG, absorbance at 405 nm); format: biochemical; settings: 0.1 mg/mL and 0.5 mg/mL, Figure 1
Protocol: Different concentrations (0.01, 0.1, 1, 5, and 10 mg/mL) of Pop extract samples, PBS (pH = 6.8), and α-glucosidase (5 U/mL) were mixed together with equal volumes and co-incubated at 37°C for 15 min. 20 μL pNPG (3 mM) was added to incubate for another 10 min and 150 μL Na2CO3 (0.1 mol/L) was used to stop the reaction. […] Meanwhile, the blank group without samples were simultaneously carried out and the inhibition ratios were calculated ([21], [22]).
For identified compounds, two concentrations (0.1 mg/mL and 0.5 mg/mL) of each inhibitor were prepared and added to PBS (pH = 6.8) and α-glucosidase (5 U/mL) with equal volumes. After that, 20 μL pNPG (3 mM) was added to initiate the reactions and the changes of absorbance were recorded every 20 s immediately.

Kunming mice = assay: Sucrose-loading test, postprandial blood glucose; format: in vivo; settings: gavage, 0-120 min
Protocol: Kunming mice (male, 35–40 g) were gained from Xi’an Jiaotong University (Xi’an, China). […] After gavage, the blood glucose levels were measured at 0, 15, 30, 45, 60, 90, and 120 min by glucose detection kit (Robio Co., Shanghai, China). The whole process conformed to the Guide for the Care and Use of Laboratory Animals, eighth edition (ISBN 10: 0-309-15396-4) ([22]).

α-glucosidase [2] = target: T1, α-glucosidase; assay: Atomic force microscopy of α-glucosidase with EA; settings: EA 40 μg/mL, α-glucosidase 2.0 U/mL, co-incubation 30 min
α-glucosidase [3] = target: T1, α-glucosidase; assay: Kinetic analysis: Lineweaver–Burk plot and inhibitory reversibility; format: biochemical
Protocol: Lineweaver–Burk plot was employed to determine the inhibitory type of EA against α-glucosidase ([23]). Briefly, 20 μL α-glucosidase (5 U/mL) was mixed with different concentrations (0, 10, 15, 20, 30 μg/mL) of EA and incubated at 37°C for 15 min. pNPG (1.0, 2.0, 4.0, and 8.0 × 10^–3 mol/L) was added to initiate the reaction and the changes of absorbance were recorded every 60 s immediately. The double-reciprocal plots of reaction velocity (υ) against different concentration of pNPG (1/υ vs. 1/[pNPG]) were analyzed using the Lineweaver–Burk plot to determine inhibition constant (Ki).
To determine the inhibitory reversibility of EA against α-glucosidase, different concentrations (0, 20, 40, 60, and 100 μg/mL) of EA were reacted with the range of 7.5–1 U/mL α-glucosidase, the absorbance was recorded every 60 s immediately after the pNPG (3 mM) was added ([24]).

α-glucosidase [4] = target: T1, α-glucosidase; design: method as in PMID 20232167; settings: EA isolated and identified from Rosa gallica; cited from earlier work
α-glucosidase [5] = target: T1, α-glucosidase; assay: Circular dichroism spectra, secondary structure contents of α-glucosidase; settings: EA 2 mg/mL, α-glucosidase 5.0 U/mL
Protocol: The analysis of CD spectrum was performed according to the previous report with some modifications ([26]). Briefly, both α-glucosidase and EA were dissolved in PBS (pH = 6.8). […] The spectrum scanning range was 200–250 nm, the response time and scanning speed were 1 s and […], respectively.

α-glucosidase [6] = target: T1, α-glucosidase; assay: Fluorescence quenching of α-glucosidase by EA (Stern–Volmer, binding and thermodynamic analysis)
Protocol: The fluorescence spectra of α-glucosidase with or without EA were measured at three different temperatures (298, 304, and 310 K) according to the previous study ([21]). Exactly, 2.5 mL α-glucosidase (15 U/mL) was titrated by continuous additions of EA (5 μL each time) to reach a final concentration range from 0 to 19.89 × 10^–6 mol/L. After 5 min of equilibration under different temperatures, the steady fluorescence emission spectra were recorded from 300 to 460 nm with an excitation wavelength of 280 nm. Additionally, the fluorescence of free EA was measured as the background. According to fluorescence spectra data, the quenching constant (Ksv), binding constant (Ka), number of binding sites (n), the binding constant of accessible fluorophores, and the values of free energy change (△G^0), △H^0 and △S^0 were calculated according the previous reports ([21], [22], [25]).
To further exploit the quenching mechanism, Ksv was calculated by Stern–Volmer equation to determine the quench type, dynamic quenching or static quenching:
(1) F0/F=1+KSV[Q]=1+Kqτ0[Q]
where F0 and F are the peak of fluorescence intensities of α-glucosidase […], respectively; Ksv is the dynamic quenching constant; Kq is the quenching rate constant; [Q] is the different concentrations of EA; τ0 is the average lifetime of fluorescence with the value of 10^–8 s.
For static quenching, the equation as follow was employed to calculate binding constant (Ka) and number of binding sites (n) between EA and α-glucosidase:
(2) lgF0-F/F=lgKa+nlg[Q]
Thermodynamic analysis was performed to further determine the binding forces between EA and α-glucosidase, and the relevant thermodynamic parameters, including△G^0,△H^0, and △S^0, were calculated by the two following equations: […]

T1 sequence (P53341 whole entry): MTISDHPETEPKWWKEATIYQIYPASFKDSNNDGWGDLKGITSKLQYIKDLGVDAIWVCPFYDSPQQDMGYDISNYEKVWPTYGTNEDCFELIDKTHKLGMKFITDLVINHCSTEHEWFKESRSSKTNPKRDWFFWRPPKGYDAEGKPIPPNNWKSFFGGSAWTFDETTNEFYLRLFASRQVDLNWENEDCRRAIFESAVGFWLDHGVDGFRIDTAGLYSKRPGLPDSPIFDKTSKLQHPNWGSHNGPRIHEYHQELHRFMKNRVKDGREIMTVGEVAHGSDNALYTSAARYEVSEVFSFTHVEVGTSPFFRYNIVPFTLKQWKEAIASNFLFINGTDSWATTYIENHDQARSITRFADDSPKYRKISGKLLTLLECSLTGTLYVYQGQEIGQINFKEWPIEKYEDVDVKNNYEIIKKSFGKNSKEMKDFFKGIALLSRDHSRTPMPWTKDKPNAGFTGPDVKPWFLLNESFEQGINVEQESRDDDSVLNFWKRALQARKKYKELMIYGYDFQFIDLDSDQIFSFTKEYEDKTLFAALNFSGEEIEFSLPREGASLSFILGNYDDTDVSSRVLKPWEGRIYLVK

SMILES: Oc1ccc(/C=C/c2cc(O)cc(O)c2)cc1 [resveratrol, Resveratrol]
α-glucosidase inhibitory activity of identified compounds (in words) (α-glucosidase [1]): strong inhibitory activity

SMILES: C[C@H]1O[C@H](O[C@H]2[C@H](O)[C@@H](O)[C@@H](O[C@H]3[C@H](O)[C@@H](O)C(O)O[C@@H]3CO)O[C@@H]2CO)[C@H](O)[C@@H](O)[C@@H]1N[C@H]1C=C(CO)[C@@H](O)[C@H](O)[C@H]1O (some centres unmarked) [acarbose, Acarbose, reference compound]
reduction of AUC of blood glucose (Kunming mice; sucrose 2 g/kg + acarbose 50 mg/kg): 36.4%

α-glucosidase inhibitory activity of identified compounds (in words) (α-glucosidase [1]): strong activity
SMILES: O=c1c(O)c(-c2ccc(O)cc2)oc2cc(O)cc(O)c12 [kaempferol, Kaempferol]

SMILES: O=c1oc2c(O)c(O)cc3c(=O)oc4c(O)c(O)cc1c4c23 [EA, Ellagic acid]
effect on α-glucosidase molecules observed by AFM (in words) (α-glucosidase [2]): aggregated together and formed irregular polymers | inhibitory type (α-glucosidase [3]; Lineweaver–Burk plot, lines intersect on Y axis): competitive | inhibitory reversibility (α-glucosidase [3]; υ vs. [α-glucosidase], EA 0-100 μg/mL): reversible | α-glucosidase inhibition (in words) (α-glucosidase [4]): almost no α-glucosidase inhibition | Random coil content of α-glucosidase (α-glucosidase [5]; VEA:Vα–glucosidase 25:200): 28.43 ± 0.21% | α–helix content of α-glucosidase (α-glucosidase [5]; VEA:Vα–glucosidase 25:200): 29.53 ± 0.29% | β–sheet content of α-glucosidase (α-glucosidase [5]; VEA:Vα–glucosidase 25:200): 23.73 ± 0.21% | β–turn content of α-glucosidase (α-glucosidase [5]; VEA:Vα–glucosidase 25:200): 18.07 ± 0.21% | Random coil content of α-glucosidase (α-glucosidase [5]; VEA:Vα–glucosidase 50:200): 30.47 ± 0.33% | α–helix content of α-glucosidase (α-glucosidase [5]; VEA:Vα–glucosidase 50:200): 28.17 ± 0.21% | β–sheet content of α-glucosidase (α-glucosidase [5]; VEA:Vα–glucosidase 50:200): 26.60 ± 0.22% | β–turn content of α-glucosidase (α-glucosidase [5]; VEA:Vα–glucosidase 50:200): 18.57 ± 0.29% | Random coil content of α-glucosidase (α-glucosidase [5]; VEA:Vα–glucosidase 100:200): 32.87 ± 0.33% | α–helix content of α-glucosidase (α-glucosidase [5]; VEA:Vα–glucosidase 100:200): 24.83 ± 0.29% | β–sheet content of α-glucosidase (α-glucosidase [5]; VEA:Vα–glucosidase 100:200): 31.00 ± 0.54% | β–turn content of α-glucosidase (α-glucosidase [5]; VEA:Vα–glucosidase 100:200): 18.70 ± 0.33% | reduction of AUC of blood glucose (Kunming mice; sucrose 2 g/kg + EA 25 mg/kg): 31.8% | fluorescence quenching mechanism (α-glucosidase [6]): static quenching mechanism | Ksv (quenching constant) (α-glucosidase [6]; 298 K): 4.75 ± 0.01 ×10^5 L/mol | n (number of binding sites) (α-glucosidase [6]; 298 K): 0.87 | ΔG^0 (α-glucosidase [6]; 298 K): -5.533 ± 0.0072 kcal/mol | Ksv (quenching constant) (α-glucosidase [6]; 304 K): 4.05 ± 0.03 ×10^5 L/mol | n (number of binding sites) (α-glucosidase [6]; 304 K): 0.83 | ΔG^0 (α-glucosidase [6]; 304 K): -5.33 ± 0.014 kcal/mol | Ksv (quenching constant) (α-glucosidase [6]; 310 K): 3.32 ± 0.01 ×10^5 L/mol | n (number of binding sites) (α-glucosidase [6]; 310 K): 0.86 | ΔG^0 (α-glucosidase [6]; 310 K): -5.048 ± 0.012 kcal/mol | Kq (quenching rate constant) (α-glucosidase [6]; at each temperature (298, 304, 310 K)): > 2.0 × 10^10 L/mol⋅s | ΔH^0 (α-glucosidase [6]; from 298, 304 and 310 K): -17.58 ± 0.086 kcal/mol | ΔS^0 (α-glucosidase [6]; from 298, 304 and 310 K): −169.14 ± 0.33 J/mol⋅K | α-glucosidase inhibitory activity of identified compounds (in words) (α-glucosidase [1]): strongest activity

α-glucosidase inhibitory activity of identified compounds (in words) (α-glucosidase [1]): strong activity
SMILES: O=C(O)c1cc(O)c(O)c(O)c1 [gallic acid, Gallic acid]
